Experimental data reported in patent US20120095029A1, “IPP COMPLEX AS MARKER FOR ERLOTINIB TREATMENT” (Hoffmann-La Roche Inc., priority 2010, published 2012).
Counter-ions that a name gives are not always drawn.

Tests used:
alpha-parvin = alpha-parvin (Homo sapiens, UniProt Q9NVD7); conditions: H292 cell lysate preincubated with free compound (0-400 μM), then beads with immobilized compound
PINCH = PINCH (Homo sapiens, UniProt P48059); conditions: H292 cell lysate preincubated with free compound (0-400 μM), then beads with immobilized compound
PINCH, sequence (P48059 2-325): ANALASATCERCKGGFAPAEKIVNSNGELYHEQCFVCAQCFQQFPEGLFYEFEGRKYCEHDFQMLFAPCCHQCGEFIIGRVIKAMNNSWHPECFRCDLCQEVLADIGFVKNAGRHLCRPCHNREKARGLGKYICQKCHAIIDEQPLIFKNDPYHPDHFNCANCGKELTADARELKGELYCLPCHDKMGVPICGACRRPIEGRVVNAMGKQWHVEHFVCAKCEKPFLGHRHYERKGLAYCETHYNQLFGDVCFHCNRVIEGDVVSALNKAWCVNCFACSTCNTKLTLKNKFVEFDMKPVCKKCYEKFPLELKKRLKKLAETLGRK
PINCH, sequence (Q13418 whole entry partner): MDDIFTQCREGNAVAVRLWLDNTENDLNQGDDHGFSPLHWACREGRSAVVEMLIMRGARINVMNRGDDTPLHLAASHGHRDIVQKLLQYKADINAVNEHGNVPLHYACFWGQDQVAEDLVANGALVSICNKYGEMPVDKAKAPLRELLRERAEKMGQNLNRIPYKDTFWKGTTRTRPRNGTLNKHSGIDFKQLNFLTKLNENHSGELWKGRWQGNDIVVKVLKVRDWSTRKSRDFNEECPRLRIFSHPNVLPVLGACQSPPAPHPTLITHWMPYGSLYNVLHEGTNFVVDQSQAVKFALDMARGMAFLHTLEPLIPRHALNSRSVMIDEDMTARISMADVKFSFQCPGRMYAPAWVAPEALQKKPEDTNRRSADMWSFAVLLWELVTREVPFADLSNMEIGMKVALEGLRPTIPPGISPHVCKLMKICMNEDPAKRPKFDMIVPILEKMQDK
PINCH, sequence (Q9NVD7 2-372 partner): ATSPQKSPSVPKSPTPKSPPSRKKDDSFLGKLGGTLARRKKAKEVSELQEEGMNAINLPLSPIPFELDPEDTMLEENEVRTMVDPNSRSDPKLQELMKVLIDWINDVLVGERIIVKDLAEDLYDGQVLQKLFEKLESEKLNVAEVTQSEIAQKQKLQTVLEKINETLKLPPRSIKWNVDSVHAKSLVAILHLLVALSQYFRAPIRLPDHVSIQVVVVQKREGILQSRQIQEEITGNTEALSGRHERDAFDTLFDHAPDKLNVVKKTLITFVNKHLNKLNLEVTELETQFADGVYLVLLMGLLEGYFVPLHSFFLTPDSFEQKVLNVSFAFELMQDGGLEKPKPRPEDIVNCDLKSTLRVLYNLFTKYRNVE

H358 cells = assay: Testing EMT transition on H358 NSCLC cell line (TGFbeta3 treatment, western blot); type: cell-based, human; conditions: 10 ng/mL TGFbeta3 plus compound 5 μM; for Level of E-cadherin: up to 13 days
Method: Cell culture medium was renewed every 3 days. Cell lysis was performed in PBS containing 1% NP-40 and protease inhibitors. After clearing by centrifugation at 12,000 g for 15 min at 4° C., proteins were separated by SDS-PAGE and processed for western blot analysis. Images were acquired using a compact digital camera (Luminescent Image Analyzer: Fujifilm, Tokyo, Japan) and quantified with ImageQuant TL (GE Healthcare, Waukesha, Wis., USA).

NSCLC patients [1] = conditions: unselected patient population; cited from earlier work
patients with NSCLC = conditions: second line after cisplatin-based first-line regimens failed; ECOG 0, 1 or 2; cited from earlier work
ILK = ILK (Homo sapiens, UniProt Q13418); conditions: H292 cell lysate preincubated with free compound (0-400 μM), then beads with immobilized compound
ILK, sequence (Q13418 whole entry): as the sequence (Q13418 whole entry partner) above

NSCLC patients [2] = conditions: single agent; patients for whom standard therapy for advanced disease has failed; cited from earlier work
NSCLC = conditions: second line therapy of NSCLC; cited from earlier work

alpha-parvin, sequence (Q9NVD7 2-372 limits assumed): as the sequence (Q9NVD7 2-372 partner) above
alpha-parvin, sequence (Q13418 whole entry partner): as the sequence (Q13418 whole entry partner) above
alpha-parvin, sequence (P48059 2-325 partner limits assumed): as the sequence (P48059 2-325) above

SMILES	Signal Reduction (%) alpha-parvin (alpha-parvin)	Signal Reduction (%) PINCH (PINCH)	ILK expression level (H358 cells)	PINCH expression level (H358 cells)	Level of E-cadherin (H358 cells)	Clinical benefit (NSCLC patients [1])	Survival (patients with NSCLC)	Signal Reduction (%) ILK (ILK)	Survival of NSCLC patients (NSCLC patients [2])	Efficacy compared with docetaxel (NSCLC)	Side effects compared with docetaxel (NSCLC)
COc1cc2ncnc(Nc3ccc(F)c(Cl)c3)c2cc1OCCCN1CCOCC1 [Gefitinib, gefitinib]	0.0%	0.0%	not so pronounced	not so pronounced	fails to inhibit the TGFb3-mediated decrease of E-cadherin levels	does not seem to confer clinical benefit	–	–	–	–	–
CC(=O)O[C@@]12CO[C@@H]1C[C@H](O)[C@@]1(C)C(=O)[C@H](O)C3=C(C)[C@@H](OC(=O)[C@H](O)[C@@H](NC(=O)OC(C)(C)C)c4ccccc4)C[C@@](O)([C@@H](OC(=O)c4ccccc4)[C@H]21)C3(C)C [docetaxel]	–	–	–	–	–	–	improved survival	–	–	–	–
C#Cc1cccc(Nc2ncnc3cc(OCCOC)c(OCCOC)cc23)c1 [Erlotinib hydrochloride, erlotinib hydrochloride]	79.5%	87.7%	do not change	do not change	remained unchanged	–	–	77.3%	significantly prolongs and improves the survival	–	–
Nc1nc2[nH]cc(CCc3ccc(C(=O)N[C@@H](CCC(=O)O)C(=O)O)cc3)c2c(=O)[nH]1 [pemetrexed]	–	–	–	–	–	–	–	–	–	clinically equivalent efficacy	significantly fewer side effects
